This is an account of results in patent publication US20230017045A1, “PYRIDINE AND PYRIMIDINE CARBOXYLATE HERBICIDES AND METHODS OF USE THEREOF” (Dow AgroSciences LLC, priority 2017, published 2023).

Read-outs that look alike come from different tables or passages of the source.

For this test, the system named is test plant species. Kind of test: Post-emergent herbicidal activity test (greenhouse, foliar spray, visual growth reduction). In kind it is in vivo. The note with it: post-emergence, 336 h, 140 g ai/ha. The method, boiled down: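 Greenhouse plants at first–second true leaf stage sprayed overhead at 187 L/ha with compound in acetone/water/isopropanol/DMSO/crop oil/X-77 carrier; controls received solvent blank. Injury rated visually after 14 d on a 0–100% scale versus untreated and control plants, converted to growth reduction.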

[1] abbreviates: ECHCG: barnyardgrass (Echinochloa crus-galli), 14 days after application, read-out: Visual Growth Reduction (%) 14 Days After Application, ECHCG.
Setting [2] is: IPOHE: ivy-leaf morning glory (Ipomoea hederacea), 14 days after application, read-out: Visual Growth Reduction (%) 14 Days After Application, IPOHE.
Where [3] appears, read: KCHSC: kochia (Bassia scoparia), 14 days after application, read-out: Visual Growth Reduction (%) 14 Days After Application, KCHSC.
Setting [4] is: ORYSA: rice (Oryza sativa), 14 days after application, read-out: Visual Growth Reduction (%) 14 Days After Application, ORYSA.
Where [5] appears, read: SETFA: giant foxtail (Setaria faberi), 14 days after application, read-out: Visual Growth Reduction (%) 14 Days After Application, SETFA.
The mark [6] stands for this setting: SORVU: grain sorghum (Sorghum vulgare), 14 days after application, read-out: Visual Growth Reduction (%) 14 Days After Application, SORVU.
The mark [7] stands for this setting: STEME: common chickweed (Stellaria media), 14 days after application, read-out: Visual Growth Reduction (%) 14 Days After Application, STEME.
[8] abbreviates: TRZAS: wheat, spring (Triticum aestivum), 14 days after application, read-out: Visual Growth Reduction (%) 14 Days After Application, TRZAS.
Where [9] appears, read: blackgrass (Alopecurus myosuroides), 14 Days After Application, read-out: Visual Growth Reduction (%) ALOMY.
Setting [10] is: canada thistle (Cirsium arvense), 14 Days After Application, read-out: Visual Growth Reduction (%) CIRAR.
Where [11] appears, read: crabgrass (Digitaria sanguinalis), 14 Days After Application, read-out: Visual Growth Reduction (%) DIGSA.
Setting [12] is: lambsquarters (Chenopodium album), 14 Days After Application, read-out: Visual Growth Reduction (%) CHEAL.
Setting [13] is: redroot pigweed (Amaranthus retroflexus), 14 Days After Application, read-out: Visual Growth Reduction (%) AMARE.
Where [14] appears, read: wild oat (Avena fatua), 14 Days After Application, read-out: Visual Growth Reduction (%) AVEFA.
Setting [15] is: yellow nutsedge (Cyperus esculentus), 14 Days After Application, read-out: Visual Growth Reduction (%) CYPES.

In the case of `COC(=O)c1nc(-c2cc(F)c(OC)cc2F)ccc1Cl` [F291, Methyl 3-chloro-6-(2,5-difluoro-4-methoxyphenyl) picolinate], the pest or weed control at 140 g/ha under setting [1] was in the range of 0 to 29%; the pest or weed control at 140 g/ha under setting [2] fell in the range of 0 to 29%; the pest or weed control at 140 g/ha under setting [3] was 0 to 29%; the pest or weed control at 140 g/ha under setting [4] is 0 to 29%; the pest or weed control at 140 g/ha under setting [5] lay within 0 to 29%; the pest or weed control at 140 g/ha under setting [6] fell in the range of 0 to 29%. The pest or weed control at 140 g/ha is, setting by setting: under setting [7], 0 to 29%; under setting [8], 0 to 29%; under setting [9], 0 to 29%; under setting [10], 30 to 44%; under setting [11], 0 to 29%; under setting [12], 45 to 59%. Besides, the pest or weed control at 140 g/ha is, setting by setting: under setting [13], 0 to 29%; under setting [14], 0 to 29%; under setting [15], 0 to 29%.

In the case of `COC(=O)c1nc(-c2ccc(F)c(OC)c2)ccc1Cl` [F292, Methyl 3-chloro-6-(4-fluoro-3-methoxyphenyl) picolinate], the pest or weed control at 140 g/ha reads like this: under setting [1], 0 to 29%; under setting [2], 30 to 44%; under setting [3], 45 to 59%; under setting [4], 0 to 29%; under setting [5], 0 to 29%; under setting [6], 0 to 29%. The pest or weed control at 140 g/ha by setting is: under setting [7], 0 to 29%; under setting [8], 0 to 29%; under setting [9], 0 to 29%; under setting [10], 60 to 74%; under setting [11], 0 to 29%; under setting [12], 85 to 94%. The pest or weed control at 140 g/ha reads like this: under setting [13], 0 to 29%; under setting [14], 0 to 29%; under setting [15], 60 to 74%.

As to `Cc1c(C(F)(F)F)ccc(-c2ccc(Cl)c(C(=O)O)n2)c1F` [F293, 3-Chloro-6-(2-fluoro-3-methyl-4-(trifluoromethyl)phenyl)picolinic acid], the pest or weed control at 140 g/ha under setting [1] lay in the range of 0 to 29%; the pest or weed control at 140 g/ha under setting [2] is 0 to 29%; the pest or weed control at 140 g/ha under setting [3] was in the range of 0 to 29%; the pest or weed control at 140 g/ha under setting [4] was in the range of 0 to 29%; the pest or weed control at 140 g/ha under setting [5] lay in the range of 0 to 29%; the pest or weed control at 140 g/ha under setting [6] lay in the range of 0 to 29%. Besides, the pest or weed control at 140 g/ha reads like this: under setting [7], 0 to 29%; under setting [8], 0 to 29%; under setting [9], 0 to 29%; under setting [10], 30 to 44%; under setting [11], 0 to 29%; under setting [12], 45 to 59%. The pest or weed control at 140 g/ha lay within 0 to 29% under setting [13], 0 to 29% under setting [14] and 0 to 29% under setting [15].

As to `O=C(O)c1nc(-c2ccc(C(F)(F)F)c(C(F)F)c2F)c(F)cc1Cl` [F294, 3-Chloro-6-(3-(difluoromethyl)-2-fluoro-4-(trifluoromethyl)phenyl)-5-fluoropicolinic acid], the pest or weed control at 140 g/ha fell in the range of 60 to 74% under setting [1]; 95 to 100% under setting [2]; 75 to 84% under setting [3]; 0 to 29% under setting [4]; 85 to 94% under setting [5]; 95 to 100% under setting [6]. Also, the pest or weed control at 140 g/ha under setting [7] lay in the range of 0 to 29%; the pest or weed control at 140 g/ha under setting [8] fell in the range of 60 to 74%; the pest or weed control at 140 g/ha under setting [9] was 75 to 84%; the pest or weed control at 140 g/ha under setting [10] was in the range of 75 to 84%; the pest or weed control at 140 g/ha under setting [11] fell in the range of 85 to 94%; the pest or weed control at 140 g/ha under setting [12] lay within 85 to 94%. For the same molecule, the pest or weed control at 140 g/ha fell in the range of 95 to 100% under setting [13], 60 to 74% under setting [14] and 0 to 29% under setting [15].

On to `COC(=O)c1nc(-c2ccc(C(F)(F)F)c(OC)c2)c(F)cc1Cl` [F295, Methyl 3-chloro-5-fluoro-6-(3-methoxy-4-(trifluoromethyl)phenyl)picolinate], for which the pest or weed control at 140 g/ha was 0 to 29% under setting [1]; 60 to 74% under setting [2]; 0 to 29% under setting [3]; 0 to 29% under setting [4]; 0 to 29% under setting [5]; 0 to 29% under setting [6]. In addition, the pest or weed control at 140 g/ha is 0 to 29% under setting [7]; 0 to 29% under setting [8]; 0 to 29% under setting [9]; 60 to 74% under setting [10]; 45 to 59% under setting [11]; 30 to 44% under setting [12]. Also, the pest or weed control at 140 g/ha was 0 to 29% under setting [13], 0 to 29% under setting [14] and 75 to 84% under setting [15].

For the molecule `COC(=O)c1nc(-c2ccc(C(F)(F)F)c(OC)c2)ccc1Cl` [F296, Methyl 3-chloro-6-(3-methoxy-4-(trifluoromethyl)phenyl)picolinate], the pest or weed control at 140 g/ha reads like this: under setting [1], 0 to 29%; under setting [2], 45 to 59%; under setting [3], 0 to 29%; under setting [4], 0 to 29%; under setting [5], 0 to 29%; under setting [6], 0 to 29%. For the same molecule, the pest or weed control at 140 g/ha is 0 to 29% under setting [7]; 0 to 29% under setting [8]; 0 to 29% under setting [9]; 60 to 74% under setting [10]; 0 to 29% under setting [11]; 0 to 29% under setting [12]. In addition, the pest or weed control at 140 g/ha by setting is: under setting [13], 0 to 29%; under setting [14], 0 to 29%; under setting [15], 0 to 29%.

For `COC(=O)c1nc(-c2ccc(C(F)(F)F)c3ccoc23)c(F)cc1Cl` [F297, Methyl 3-chloro-5-fluoro-6-(4-(trifluoromethyl)benzofuran-7-yl) picolinate], the pest or weed control at 140 g/ha runs as follows: under setting [1], 0 to 29%; under setting [2], 95 to 100%; under setting [3], 45 to 59%; under setting [4], 0 to 29%; under setting [5], 60 to 74%; under setting [6], 60 to 74%. Also, the pest or weed control at 140 g/ha was in the range of 0 to 29% under setting [7]; 0 to 29% under setting [8]; 0 to 29% under setting [9]; 85 to 94% under setting [10]; 75 to 84% under setting [11]; 85 to 94% under setting [12]. The pest or weed control at 140 g/ha reads like this: under setting [13], 85 to 94%; under setting [14], 0 to 29%; under setting [15], 0 to 29%.

In the case of `COC(=O)c1nc(-c2ccc(Cl)c(F)c2C)ccc1Cl` [F298, Methyl 3-chloro-6-(4-chloro-3-fluoro-2-methylphenyl) picolinate], the pest or weed control at 140 g/ha by setting is: under setting [1], 0 to 29%; under setting [2], 95 to 100%; under setting [3], 0 to 29%; under setting [4], 0 to 29%; under setting [5], 75 to 84%; under setting [6], 75 to 84%. Moreover, the pest or weed control at 140 g/ha under setting [7] lay within 0 to 29%; the pest or weed control at 140 g/ha under setting [8] lay in the range of 0 to 29%; the pest or weed control at 140 g/ha under setting [9] was 0 to 29%; the pest or weed control at 140 g/ha under setting [10] lay within 60 to 74%; the pest or weed control at 140 g/ha under setting [11] fell in the range of 0 to 29%; the pest or weed control at 140 g/ha under setting [12] lay within 75 to 84%. The pest or weed control at 140 g/ha was in the range of 30 to 44% under setting [13], 0 to 29% under setting [14] and 0 to 29% under setting [15].

Take `COc1c(Cl)ccc(-c2ccc(Cl)c(C(=O)OCc3ccccc3)n2)c1F` [F299, Benzyl 3-chloro-6-(4-chloro-2-fluoro-3-methoxyphenyl) picolinate]: the pest or weed control at 140 g/ha under setting [1] lay within 0 to 29%; the pest or weed control at 140 g/ha under setting [2] lay in the range of 60 to 74%; the pest or weed control at 140 g/ha under setting [3] lay in the range of 75 to 84%; the pest or weed control at 140 g/ha under setting [4] was 0 to 29%; the pest or weed control at 140 g/ha under setting [5] lay in the range of 0 to 29%; the pest or weed control at 140 g/ha under setting [6] is 0 to 29%. For the same molecule, the pest or weed control at 140 g/ha by setting is: under setting [7], 60 to 74%; under setting [8], 0 to 29%; under setting [9], 0 to 29%; under setting [10], 75 to 84%; under setting [11], 0 to 29%; under setting [12], 75 to 84%. Moreover, the pest or weed control at 140 g/ha is, setting by setting: under setting [13], 60 to 74%; under setting [14], 0 to 29%; under setting [15], 75 to 84%.
